Experimental data taken from ChEMBL document CHEMBL1201861, “Genomics of Drug Sensitity in Cancer screening data, Wellcome Trust Sanger Institute”.

Key:
PANC-03-27 = test: cells; format: functional, cell-based; settings: Homo sapiens
Description: SANGER: Inhibition of human PANC-03-27 cell growth in a cell viability assay.

CAL-33 = test: cells; format: functional, cell-based; settings: Homo sapiens;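 further: growth inhibition of CAL-33 cells, read out with a cell viability assay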
Description: SANGER: Inhibition of human CAL-33 cell growth in a cell viability assay.

NCI-H716 = test: cells; format: functional, cell-based, Homo sapiens; settings: Homo sapiens, NCI-H716;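 further: growth inhibition of human NCI-H716 cells, measured by a cell viability assay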
Description: SANGER: Inhibition of human NCI-H716 cell growth in a cell viability assay.

NCI-H1563 = test: cells; format: functional, cell-based; settings: Homo sapiens;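 further: growth inhibition of human NCI-H1563 cells, read out with a cell viability assay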
Description: SANGER: Inhibition of human NCI-H1563 cell growth in a cell viability assay.

CA46 = test: cells; format: functional, cell-based, Homo sapiens; settings: Homo sapiens, CA46;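 further: growth inhibition of human CA46 cells, read out by a cell viability assay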
Description: SANGER: Inhibition of human CA46 cell growth in a cell viability assay.

SKG-IIIa = test: cells; format: functional, cell-based; settings: Homo sapiens;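 further: cell growth inhibition, read out with a cell viability assay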
Description: SANGER: Inhibition of human SKG-IIIa cell growth in a cell viability assay.

CMK = test: cells; format: functional, cell-based, Homo sapiens; settings: Homo sapiens, CMK;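 further: growth inhibition of CMK cells, read out as cell viability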
Description: SANGER: Inhibition of human CMK cell growth in a cell viability assay.

MC-IXC = test: cells; format: functional, cell-based; settings: Homo sapiens;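 further: growth inhibition of MC-IXC cells, read out with a cell viability assay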
Description: SANGER: Inhibition of human MC-IXC cell growth in a cell viability assay.

OE19 = test: cells; format: functional, cell-based; settings: Homo sapiens;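 further: growth inhibition of OE19 cells, measured through a cell viability read-out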
Description: SANGER: Inhibition of human OE19 cell growth in a cell viability assay.

NCI-H358 = test: cells; format: functional, cell-based; settings: Homo sapiens;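 further: growth inhibition of NCI-H358 human cells, read out with a cell viability assay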
Description: SANGER: Inhibition of human NCI-H358 cell growth in a cell viability assay.

KOSC-2 = test: cells; format: functional, cell-based; settings: Homo sapiens;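 further: growth inhibition of KOSC-2 cells, read out by a cell viability assay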
Description: SANGER: Inhibition of human KOSC-2 cell growth in a cell viability assay.

NCI-H661 = test: cells; format: functional, cell-based; settings: Homo sapiens;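 further: cell viability assay read-out, IC50 being the concentration that inhibits growth of the cells by half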
Description: SANGER: Inhibition of human NCI-H661 cell growth in a cell viability assay.

HCC1395 = test: cells; format: functional, cell-based; settings: Homo sapiens;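 further: growth inhibition of HCC1395 cells, read out by a cell viability assay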
Description: SANGER: Inhibition of human HCC1395 cell growth in a cell viability assay.

HGC-27 = test: cells; format: functional, cell-based; settings: Homo sapiens;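 further: growth inhibition of human HGC-27 cells, read out in a cell viability assay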
Description: SANGER: Inhibition of human HGC-27 cell growth in a cell viability assay.

HCC1599 = test: cells; format: functional, cell-based, Homo sapiens; settings: Homo sapiens, HCC1599;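 further: growth inhibition of HCC1599 cells, read out in a cell viability assay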
Description: SANGER: Inhibition of human HCC1599 cell growth in a cell viability assay.

OAW-28 = test: cells; format: functional, cell-based; settings: Homo sapiens;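 further: growth inhibition of OAW-28 cells, read out with a cell viability assay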
Description: SANGER: Inhibition of human OAW-28 cell growth in a cell viability assay.

CAL-62 = test: cells; format: functional, cell-based; settings: Homo sapiens;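 further: growth inhibition of CAL-62 cells, read out with a cell viability assay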
Description: SANGER: Inhibition of human CAL-62 cell growth in a cell viability assay.

CAPAN-1 = test: cells; format: functional, cell-based; settings: Homo sapiens;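 further: growth suppression of CAPAN-1 cells, read out by a cell viability assay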
Description: SANGER: Inhibition of human CAPAN-1 cell growth in a cell viability assay.

NCI-H2170 = test: cells; format: functional, cell-based; settings: Homo sapiens;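 further: cell viability assay measuring growth inhibition of human NCI-H2170 cancer cells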
Description: SANGER: Inhibition of human NCI-H2170 cell growth in a cell viability assay.

NCI-H596 = test: cells; format: functional, cell-based; settings: Homo sapiens;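 further: growth inhibition of NCI-H596 cells, read out with a cell viability assay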
Description: SANGER: Inhibition of human NCI-H596 cell growth in a cell viability assay.

PC-14 = test: cells; format: functional, cell-based; settings: Homo sapiens;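 further: cell viability assay measuring inhibition of PC-14 cell growth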
Description: SANGER: Inhibition of human PC-14 cell growth in a cell viability assay.

AU565 = test: cells; format: functional, cell-based; settings: Homo sapiens;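 further: cell viability assay measuring growth inhibition of human AU565 cells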
Description: SANGER: Inhibition of human AU565 cell growth in a cell viability assay.

NCI-H1623 = test: cells; format: functional, cell-based; settings: Homo sapiens;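 further: cell viability assay used as the read-out for growth inhibition of NCI-H1623 cells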
Description: SANGER: Inhibition of human NCI-H1623 cell growth in a cell viability assay.

CHP-126 = test: cells; format: functional, cell-based, Homo sapiens; settings: Homo sapiens, CHP-126
Description: SANGER: Inhibition of human CHP-126 cell growth in a cell viability assay.

SW1710 = test: cells; format: functional, cell-based; settings: Homo sapiens;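 further: growth inhibition of SW1710 cells, determined with a cell viability assay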
Description: SANGER: Inhibition of human SW1710 cell growth in a cell viability assay.

HSC-2 = test: cells; format: functional, cell-based; settings: Homo sapiens;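 further: growth inhibition of human HSC-2 cells, read out by a cell viability assay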
Description: SANGER: Inhibition of human HSC-2 cell growth in a cell viability assay.

BFTC-905 = test: cells; format: functional, cell-based; settings: Homo sapiens
Description: SANGER: Inhibition of human BFTC-905 cell growth in a cell viability assay.

SW1990 = test: cells; format: functional, cell-based; settings: Homo sapiens
Description: SANGER: Inhibition of human SW1990 cell growth in a cell viability assay.

M059J = test: cells; format: functional, cell-based; settings: Homo sapiens;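 further: growth inhibition of M059J cells, read out with a cell viability assay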
Description: SANGER: Inhibition of human M059J cell growth in a cell viability assay.

AN3-CA = test: cells; format: functional, cell-based; settings: Homo sapiens;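 further: growth inhibition of human AN3-CA cells measured by a cell viability assay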
Description: SANGER: Inhibition of human AN3-CA cell growth in a cell viability assay.

NUGC-3 = test: cells; format: functional, cell-based; settings: Homo sapiens;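 further: growth inhibition of human NUGC-3 cells, read out with a cell viability assay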
Description: SANGER: Inhibition of human NUGC-3 cell growth in a cell viability assay.

5637 = test: cells; format: functional, cell-based; settings: Homo sapiens
Description: SANGER: Inhibition of human 5637 cell growth in a cell viability assay.

SK-MEL3 = test: cells; format: functional, cell-based, SK-MEL-3; settings: Homo sapiens;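 further: growth inhibition of human SK-MEL-3 cells, read out with a cell viability assay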
Description: SANGER: Inhibition of human SK-MEL-3 cell growth in a cell viability assay.

DOK = test: cells; format: functional, cell-based; settings: Homo sapiens;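 further: cell viability assay read-out, values reflect inhibition of cell growth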
Description: SANGER: Inhibition of human DOK cell growth in a cell viability assay.

NCI-H2122 = test: cells; format: functional, cell-based; settings: Homo sapiens;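 further: growth inhibition of the cells, read out with a cell viability assay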
Description: SANGER: Inhibition of human NCI-H2122 cell growth in a cell viability assay.

SCC-25 = test: cells; format: functional, cell-based; settings: Homo sapiens;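 further: growth inhibition of SCC-25 cells, measured with a cell viability assay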
Description: SANGER: Inhibition of human SCC-25 cell growth in a cell viability assay.

RD = test: cells; format: functional, cell-based; settings: Homo sapiens
Description: SANGER: Inhibition of human RD cell growth in a cell viability assay.

COR-L279 = test: SANGER: Inhibition of human COR-L279 cell growth in a cell viability assay.; format: functional, cell-based; settings: Homo sapiens, COR-L279
CAL-148 = test: cells; format: functional, cell-based, Homo sapiens; settings: Homo sapiens, CAL-148
Description: SANGER: Inhibition of human CAL-148 cell growth in a cell viability assay.

IGR-1 = test: cells; format: functional, cell-based; settings: Homo sapiens;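 further: growth inhibition of human IGR-1 cells, read out with a cell viability assay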
Description: SANGER: Inhibition of human IGR-1 cell growth in a cell viability assay.

PFSK-1 = test: cells; format: functional, cell-based; settings: Homo sapiens;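 further: cell viability assay measuring how strongly compounds suppress growth of human PFSK-1 cells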
Description: SANGER: Inhibition of human PFSK-1 cell growth in a cell viability assay.

SK-MEL-30 = test: cells; format: functional, cell-based; settings: Homo sapiens;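 further: growth inhibition of SK-MEL-30 cells, determined with a cell viability assay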
Description: SANGER: Inhibition of human SK-MEL-30 cell growth in a cell viability assay.

REH = test: cells; format: functional, cell-based, Homo sapiens; settings: Homo sapiens, REH;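 further: growth inhibition of REH cells determined with a cell viability read-out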
Description: SANGER: Inhibition of human REH cell growth in a cell viability assay.

DMS-273 = test: cells; format: functional, cell-based; settings: Homo sapiens
Description: SANGER: Inhibition of human DMS-273 cell growth in a cell viability assay.

HT-29 = test: cells; format: functional, cell-based; settings: Homo sapiens;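 further: growth inhibition of human HT-29 cells, read out by a cell viability assay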
Description: SANGER: Inhibition of human HT-29 cell growth in a cell viability assay.

THP-1 = test: cells; format: functional, cell-based, Homo sapiens; settings: Homo sapiens, THP-1;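 further: growth inhibition of THP-1 cells, read out via a cell viability assay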
Description: SANGER: Inhibition of human THP-1 cell growth in a cell viability assay.

NCI-H2452 = test: cells; format: functional, cell-based; settings: Homo sapiens;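 further: growth inhibition of NCI-H2452 cells, read out with a cell viability assay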
Description: SANGER: Inhibition of human NCI-H2452 cell growth in a cell viability assay.

CP50-MEL-B = test: cells; format: functional, cell-based; settings: Homo sapiens;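 further: growth inhibition of the human cell line, measured with a cell viability read-out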
Description: SANGER: Inhibition of human CP50-MEL-B cell growth in a cell viability assay.

LU-165 = test: cells; format: functional, cell-based, Homo sapiens; settings: Homo sapiens, LU-165
Description: SANGER: Inhibition of human LU-165 cell growth in a cell viability assay.

SCC-9 = test: cells; format: functional, cell-based; settings: Homo sapiens;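 further: Read-out is a cell viability assay, with values giving inhibition of cell growth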
Description: SANGER: Inhibition of human SCC-9 cell growth in a cell viability assay.

Ca9-22 = test: cells; format: functional, cell-based; settings: Homo sapiens;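 further: growth inhibition of Ca9-22 cells, read out with a cell viability assay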
Description: SANGER: Inhibition of human Ca9-22 cell growth in a cell viability assay.

UACC-893 = test: cells; format: functional, cell-based; settings: Homo sapiens
Description: SANGER: Inhibition of human UACC-893 cell growth in a cell viability assay.

MDA-MB-157 = test: cells; format: functional, cell-based; settings: Homo sapiens
Description: SANGER: Inhibition of human MDA-MB-157 cell growth in a cell viability assay.

Huh-7 = test: cells; format: functional, cell-based; settings: Homo sapiens;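 further: HuH-7 cell growth inhibition, read out with a cell viability assay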
Description: SANGER: Inhibition of human HuH-7 cell growth in a cell viability assay.

NCCIT = test: SANGER: Inhibition of human NCCIT cell growth in a cell viability assay.; format: functional, cell-based; settings: Homo sapiens, NCCIT
IMR-5 = test: cells; format: functional, cell-based, Homo sapiens; settings: Homo sapiens, IMR-5; read-out: IC50;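 further: growth inhibition of human IMR-5 cells, read out with a cell viability assay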
Description: SANGER: Inhibition of human IMR-5 cell growth in a cell viability assay.

G-361 = test: cells; format: functional, cell-based; settings: Homo sapiens
NCI-H748 = test: cells; format: functional, cell-based, Homo sapiens; settings: Homo sapiens, NCI-H748;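 further: growth inhibition of NCI-H748 cells, measured by a cell viability assay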
Description: SANGER: Inhibition of human NCI-H748 cell growth in a cell viability assay.

Compound `CCCCCCCCCCCC1=C(O)C(=O)C=C(O)C1=O` [EMBELIN] has an IC50 (PANC-03-27) greater than 32 µM, an IC50 (CAL-33) of 22.9 µM and an IC50 (NCI-H716) greater than 32 µM. It also gave an IC50 (NCI-H1563) greater than 32 µM, an IC50 (CA46) of 18.7 µM and an IC50 (SKG-IIIa) greater than 32 µM. For the same compound, the IC50 (CMK) was 10.7 µM, the IC50 (MC-IXC) was 5.39 µM and the IC50 (OE19) was 29.7 µM. It also gave an IC50 (NCI-H358) of 11.1 µM, an IC50 (KOSC-2) greater than 32 µM and an IC50 (NCI-H661) of 19.2 µM. The IC50 (HCC1395) was greater than 32 µM, the IC50 (HGC-27) was 7.95 µM and the IC50 (HCC1599) was 9.04 µM. The IC50 (OAW-28) was 20 µM, the IC50 (CAL-62) was 23.3 µM and the IC50 (CAPAN-1) was 9.01 µM. For the same compound, the IC50 (NCI-H2170) was 12.1 µM, the IC50 (NCI-H596) was 15.4 µM and the IC50 (PC-14) was 15.6 µM. It also gave an IC50 (AU565) of 9.91 µM, an IC50 (NCI-H1623) of 25.4 µM and an IC50 (CHP-126) greater than 32 µM. It also gave an IC50 (SW1710) of 14.1 µM, an IC50 (HSC-2) of 7.4 µM and an IC50 (BFTC-905) of 5.03 µM. The IC50 (SW1990) was 6.49 µM, the IC50 (M059J) was 13.1 µM and the IC50 (AN3-CA) was 6.25 µM. The IC50 (NUGC-3) was 9.18 µM, the IC50 5637 was 13.2 µM and the IC50 (SK-MEL3) was 16.2 µM. The IC50 (DOK) was 11.8 µM, the IC50 (NCI-H2122) was 2.81 µM and the IC50 (SCC-25) was greater than 32 µM. It also gave an IC50 (RD) of 15.3 µM, an IC50 (COR-L279) greater than 32 µM and an IC50 (CAL-148) greater than 32 µM. It also gave an IC50 (IGR-1) of 5.38 µM, an IC50 (PFSK-1) of 14 µM and an IC50 (SK-MEL-30) of 12.8 µM. The IC50 (REH) was 8.62 µM, the IC50 (DMS-273) was 4.06 µM and the IC50 (HT-29) was 7.52 µM. The IC50 (THP-1) was 29.8 µM, the IC50 (NCI-H2452) was greater than 32 µM and the IC50 (CP50-MEL-B) was greater than 32 µM. For the same compound, the IC50 (LU-165) was greater than 32 µM, the IC50 (SCC-9) was greater than 32 µM and the IC50 (Ca9-22) was 12.4 µM. The IC50 (UACC-893) was 21.7 µM, the IC50 (MDA-MB-157) was 6.88 µM and the IC50 (Huh-7) was greater than 32 µM. For the same compound, the IC50 (NCCIT) was 19.2 µM, the IC50 (IMR-5) was greater than 32 µM and the IC50 (G-361) was 5.9 µM. For the same compound, the IC50 (NCI-H748) was greater than 32 µM.
`COc1ccc(-c2cc3nccn3c(Nc3ncccc3C(N)=O)n2)cc1OC` gave an IC50 (PANC-03-27) of 5.56 µM, an IC50 (CAL-33) greater than 8 µM and an IC50 (NCI-H716) greater than 8 µM. For the same compound, the IC50 (NCI-H1563) was greater than 8 µM, the IC50 (CA46) was 1.08 µM and the IC50 (SKG-IIIa) was greater than 8 µM. It also gave an IC50 (CMK) of 0.682 µM, an IC50 (MC-IXC) greater than 8 µM and an IC50 (OE19) greater than 8 µM. For the same compound, the IC50 (NCI-H358) was 0.689 µM, the IC50 (KOSC-2) was greater than 8 µM and the IC50 (NCI-H661) was greater than 8 µM. For the same compound, the IC50 (HCC1395) was greater than 8 µM, the IC50 (HGC-27) was 2.7 µM and the IC50 (HCC1599) was 2.69 µM. The IC50 (OAW-28) was greater than 8 µM, the IC50 (CAL-62) was greater than 8 µM and the IC50 (CAPAN-1) was 4.16 µM. It also gave an IC50 (NCI-H2170) of 5.35 µM, an IC50 (NCI-H596) greater than 8 µM and an IC50 (PC-14) greater than 8 µM. It also gave an IC50 (AU565) of 7.15 µM, an IC50 (NCI-H1623) greater than 8 µM and an IC50 (CHP-126) of 6.5 µM. It also gave an IC50 (SW1710) of 1.66 µM, an IC50 (HSC-2) of 4.53 µM and an IC50 (BFTC-905) of 2.29 µM. The IC50 (SW1990) was greater than 8 µM, the IC50 (M059J) was 2.84 µM and the IC50 (AN3-CA) was 4.66 µM. For the same compound, the IC50 (NUGC-3) was greater than 8 µM, the IC50 5637 was greater than 8 µM and the IC50 (SK-MEL3) was 5.06 µM. It also gave an IC50 (DOK) greater than 8 µM, an IC50 (NCI-H2122) of 1.28 µM and an IC50 (SCC-25) greater than 8 µM. The IC50 (RD) was greater than 8 µM, the IC50 (COR-L279) was 4.2 µM and the IC50 (CAL-148) was greater than 8 µM. The IC50 (IGR-1) was 6.54 µM, the IC50 (PFSK-1) was 7.19 µM and the IC50 (SK-MEL-30) was greater than 8 µM. For the same compound, the IC50 (REH) was 2.25 µM, the IC50 (DMS-273) was 6.61 µM and the IC50 (HT-29) was 2.81 µM. For the same compound, the IC50 (THP-1) was greater than 8 µM, the IC50 (NCI-H2452) was greater than 8 µM and the IC50 (CP50-MEL-B) was greater than 8 µM. The IC50 (LU-165) was 7.97 µM, the IC50 (SCC-9) was greater than 8 µM and the IC50 (Ca9-22) was greater than 8 µM. For the same compound, the IC50 (UACC-893) was greater than 8 µM, the IC50 (MDA-MB-157) was greater than 8 µM and the IC50 (Huh-7) was greater than 8 µM. For the same compound, the IC50 (NCCIT) was 2.36 µM, the IC50 (IMR-5) was 6.08 µM and the IC50 (G-361) was 4.3 µM. For the same compound, the IC50 (NCI-H748) was greater than 8 µM.
